According to article PMC10179080, “In Vivo and In Vitro Characterization of Close Analogs of Compound KA-11, a New Antiseizure Drug Candidate” (International Journal of Molecular Sciences, 2023):

Columns and labels:
[1] = tested on: PTZ-induced clonic seizures in mice; test: scPTZ-induced convulsions; assay type: in vivo; settings: i.p.
Experimental: (§1) The experiments were conducted on adult male albino Swiss mice weighing 22–26 g. The animals were kept in colony cages under standardized laboratory conditions: natural light–dark cycle 12/12 h, temperature 20–24 °C, air humidity 45–65% and free access to tap water and food (chow pellets). After 7 days of adaptation to laboratory conditions, the animals were randomly assigned to experimental groups consisting of 8 mice. The experimental procedures described herein were approved by the Local Ethics Committee in Lublin, Poland (approval numbers: 71/2020 and 13/2021), and were conducted in accordance with EU Directive 2010/63/EU for animal experiments. All efforts were made to minimize animal suffering and to use only the number of animals necessary to produce reliable scientific data according to the 3Rs rule.
All substances (except PTZ and tetracaine hydrochloride dissolved in water for injections) were suspended in a 1% solution of Tween 80 (Sigma-Aldrich, Saint Louis, MO, USA) in water for injections (Baxter, Warszawa, Poland) or 0.9% NaCl. All drugs were injected intraperitoneally (i.p.) 30 min before all seizure models with 1 mL syringes as a single injection, in a volume of 10 mL/kg. The pretreatment time (30 min) before testing for KA-228 and KA-232 was chosen based on the time to peak of maximum anticonvulsant activity of KA-11 from our previous studies.
The PTZ-induced clonic seizures in mice were determined after sc administration of PTZ at a dose of 100 mg/kg. The animals were administered with increasing doses of KA-228 and KA-232, and the anticonvulsant activity of each drug was evaluated as the ED50 value. This experimental procedure has been described in detail in our previous studies.
The ED50 or TD50 values for tested substances in the acute animal models of seizures were calculated using the computer log-probit analysis. Subsequently, the ED50 and TD50 values (±SEM) were statistically analyzed using one-way analysis of variance (ANOVA) followed by the post hoc Dunnett’s test for multiple comparisons. Differences among values were considered statistically significant if p < 0.05. GraphPad Prism version 8 for Windows (GraphPad Software, San Diego, CA, USA) was used as a statistical software program. The results obtained from the acute ivPTZ test and grip strength test were evaluated by a Student’s t test. Fisher’s exact probability test was used to analyze protection from tonic forelimb and hindlimb extension in the ivPTZ test.

Chimney test = settings: male, albino Swiss, mouse, in vivo, ip, mice
Experimental: as §1
The chimney test of Boissier et al. was used to quantify the acute adverse-effect potential of KA-228 and KA-232 on motor performance in mice. […]
The ED50 or TD50 values for tested substances in the acute animal models of seizures were calculated using the computer log-probit analysis. Subsequently, the ED50 and TD50 values (±SEM) were statistically analyzed using one-way analysis of variance (ANOVA) followed by the post hoc Dunnett’s test for multiple comparisons. […] The results obtained from the acute ivPTZ test and grip strength test were evaluated by a Student’s t test. […]

[2] = target: 5-HT1A (agonist radioligand) (Homo sapiens, UniProt P08908); test: Radioligand binding, 5-HT1A
5-HT1A (agonist radioligand), sequence (P08908 whole entry): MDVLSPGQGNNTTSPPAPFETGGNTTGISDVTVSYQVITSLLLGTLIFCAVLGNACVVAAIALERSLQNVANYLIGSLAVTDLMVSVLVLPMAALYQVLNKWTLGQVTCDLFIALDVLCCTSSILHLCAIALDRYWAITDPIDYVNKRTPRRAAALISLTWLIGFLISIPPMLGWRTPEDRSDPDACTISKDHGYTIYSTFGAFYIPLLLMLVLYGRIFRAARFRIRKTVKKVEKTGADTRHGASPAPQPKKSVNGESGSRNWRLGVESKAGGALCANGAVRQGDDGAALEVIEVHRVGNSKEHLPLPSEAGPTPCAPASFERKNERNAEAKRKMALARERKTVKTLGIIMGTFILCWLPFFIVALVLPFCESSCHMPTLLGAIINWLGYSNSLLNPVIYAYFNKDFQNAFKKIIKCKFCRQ

CYP2D6 = target: T1, CYP2D6 (Homo sapiens, UniProt P10635); test: CYP2D6 P450-Glo assay; assay type: in vitro ADME
T1 construct: purchased Promega, Madison, WI, USA
T1 sequence (P10635 whole entry): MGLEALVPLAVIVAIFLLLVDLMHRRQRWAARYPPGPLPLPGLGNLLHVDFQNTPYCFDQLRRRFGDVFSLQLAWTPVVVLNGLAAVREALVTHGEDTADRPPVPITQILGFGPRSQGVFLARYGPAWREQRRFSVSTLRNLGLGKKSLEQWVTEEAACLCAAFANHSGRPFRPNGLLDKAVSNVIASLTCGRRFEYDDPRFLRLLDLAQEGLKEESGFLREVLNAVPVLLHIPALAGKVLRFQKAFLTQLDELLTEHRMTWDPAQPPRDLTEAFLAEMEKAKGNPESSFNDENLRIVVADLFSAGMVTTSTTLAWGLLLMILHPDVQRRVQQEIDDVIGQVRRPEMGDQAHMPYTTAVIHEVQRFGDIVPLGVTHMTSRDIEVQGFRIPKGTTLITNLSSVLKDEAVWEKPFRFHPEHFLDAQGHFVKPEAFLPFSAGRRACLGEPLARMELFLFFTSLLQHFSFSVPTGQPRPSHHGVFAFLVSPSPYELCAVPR
Excerpt: (§2) The assays and protocols used for evaluating the KA-232 ADME-Tox parameters were similar to those described previously for compound KA-11 [6].
(§3) Figure 9 The effect of KA-232 and the reference drug ketoconazole (KE) on CYP3A4 activity (A). The effect of KA-232 and the reference drug quinidine (QD) on CYP2D6 activity (B). The effect of KA-232 and the reference cytostatic drug doxorubicin (DX) on the HepG2 cell line (C) and the SH-SY5Y cell line (D) viability. Statistical significance (* p < 0.05, **** p < 0.0001) was analyzed by Graph Pad Prism 8 software using one-way ANOVA and Bonferroni’s Multiple Comparison Post Test.

[3] = target: T2, Calcium Cav2.2 channel (antagonist radioligand) (Rattus norvegicus, UniProt Q02294); test: Radioligand binding, Cav2.2 channel
T2 construct: rat cerebral cortex; tissue Eurofins Laboratories; host or cells: rat cerebral cortex
T2 sequence (Q02294 whole entry): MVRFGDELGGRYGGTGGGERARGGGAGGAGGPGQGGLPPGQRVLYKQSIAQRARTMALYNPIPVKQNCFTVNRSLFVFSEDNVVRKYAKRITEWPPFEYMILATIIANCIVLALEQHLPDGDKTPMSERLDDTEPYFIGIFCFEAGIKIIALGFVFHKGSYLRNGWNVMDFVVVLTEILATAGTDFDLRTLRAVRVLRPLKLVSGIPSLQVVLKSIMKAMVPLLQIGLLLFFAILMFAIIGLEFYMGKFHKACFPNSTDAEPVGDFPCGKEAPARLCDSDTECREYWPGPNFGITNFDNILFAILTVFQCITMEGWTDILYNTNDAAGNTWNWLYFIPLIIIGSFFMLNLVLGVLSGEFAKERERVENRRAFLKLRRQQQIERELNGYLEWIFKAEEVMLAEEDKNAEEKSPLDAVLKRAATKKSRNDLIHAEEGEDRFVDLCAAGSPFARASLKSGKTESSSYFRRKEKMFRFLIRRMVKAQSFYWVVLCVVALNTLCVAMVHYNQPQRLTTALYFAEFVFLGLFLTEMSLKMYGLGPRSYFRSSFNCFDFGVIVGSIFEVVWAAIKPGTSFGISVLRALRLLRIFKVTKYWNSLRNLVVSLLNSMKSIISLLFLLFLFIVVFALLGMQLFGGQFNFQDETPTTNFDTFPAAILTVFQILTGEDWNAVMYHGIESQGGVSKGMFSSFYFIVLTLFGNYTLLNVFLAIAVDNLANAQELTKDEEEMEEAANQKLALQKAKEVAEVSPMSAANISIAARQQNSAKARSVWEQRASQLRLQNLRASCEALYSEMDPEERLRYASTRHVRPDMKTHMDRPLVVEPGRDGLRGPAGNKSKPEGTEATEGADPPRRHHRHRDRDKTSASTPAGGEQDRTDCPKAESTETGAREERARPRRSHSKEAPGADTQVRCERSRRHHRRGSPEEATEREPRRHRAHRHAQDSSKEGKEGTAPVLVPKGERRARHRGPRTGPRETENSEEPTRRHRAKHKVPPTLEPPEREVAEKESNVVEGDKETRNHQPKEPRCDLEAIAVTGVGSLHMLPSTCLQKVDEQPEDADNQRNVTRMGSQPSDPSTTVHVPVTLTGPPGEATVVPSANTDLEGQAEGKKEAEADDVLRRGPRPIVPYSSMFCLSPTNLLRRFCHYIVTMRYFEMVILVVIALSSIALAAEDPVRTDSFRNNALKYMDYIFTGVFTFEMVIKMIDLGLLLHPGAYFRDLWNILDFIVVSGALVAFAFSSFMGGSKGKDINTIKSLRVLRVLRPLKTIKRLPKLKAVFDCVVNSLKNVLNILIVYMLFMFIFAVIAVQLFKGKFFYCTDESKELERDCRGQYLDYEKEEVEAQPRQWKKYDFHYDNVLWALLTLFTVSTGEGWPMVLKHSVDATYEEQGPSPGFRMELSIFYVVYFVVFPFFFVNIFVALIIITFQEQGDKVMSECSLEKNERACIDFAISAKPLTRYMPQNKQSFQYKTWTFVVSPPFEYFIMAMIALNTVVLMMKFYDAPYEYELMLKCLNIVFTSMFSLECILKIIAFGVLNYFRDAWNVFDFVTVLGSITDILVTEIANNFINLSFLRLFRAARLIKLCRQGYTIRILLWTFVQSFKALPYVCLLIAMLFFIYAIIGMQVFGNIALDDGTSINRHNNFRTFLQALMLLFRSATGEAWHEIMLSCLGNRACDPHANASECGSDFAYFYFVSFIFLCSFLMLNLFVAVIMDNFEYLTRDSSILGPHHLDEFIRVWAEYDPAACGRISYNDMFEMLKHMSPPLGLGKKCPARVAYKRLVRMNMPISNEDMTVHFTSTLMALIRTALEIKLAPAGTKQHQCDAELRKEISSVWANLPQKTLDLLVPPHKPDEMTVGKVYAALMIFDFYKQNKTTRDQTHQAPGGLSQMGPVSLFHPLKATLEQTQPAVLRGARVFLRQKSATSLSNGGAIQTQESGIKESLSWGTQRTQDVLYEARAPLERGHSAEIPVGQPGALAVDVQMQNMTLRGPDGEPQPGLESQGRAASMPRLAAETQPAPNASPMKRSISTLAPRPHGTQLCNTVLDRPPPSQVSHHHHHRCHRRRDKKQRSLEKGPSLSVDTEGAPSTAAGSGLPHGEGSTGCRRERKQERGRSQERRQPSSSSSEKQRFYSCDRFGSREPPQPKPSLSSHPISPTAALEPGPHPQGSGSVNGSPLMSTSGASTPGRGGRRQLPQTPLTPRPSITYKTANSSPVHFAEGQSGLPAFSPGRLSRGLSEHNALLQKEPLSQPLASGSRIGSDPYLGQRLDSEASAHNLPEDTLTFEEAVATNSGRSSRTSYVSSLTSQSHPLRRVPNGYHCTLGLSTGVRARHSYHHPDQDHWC
Experimental: (§4) Dysfunction of both sodium and calcium ion channels is known to be one of the crucial reasons behind the pathogenesis of seizures. Consequently, these ion channels are molecular targets for several clinically important ASDs such as lacosamide, lamotrigine, carbamazepine, oxcarbazepine and compounds currently under preclinical and clinical studies. Thus, for KA-228 and KA-232, we tested herein their binding profile toward the aforementioned ion channels at concentrations of 10 and 100 µM (Table 3). […] Apart from in vitro studies focused on explaining the mechanism of action, KA-232 was additionally tested for its interaction with the potassium channel (hERG) which is recognized as one of the most important ‘off-targets’ responsible for harmful arrhythmogenic activity. Thus, the interaction of potential drug candidates with hERG must be excluded at an early stage of development.
(§5) Binding studies were carried out commercially in Eurofins Laboratories (Poitiers, France or New Taipei City, Taiwan).

[4] = tested on: Calcium Cav1.2 channel (verapamil site, antagonist radioligand); test: Radioligand binding, Cav1.2 verapamil site; set-up: species or system rat; settings: 10 µM
Experimental: as §4, §5

hepatoma HepG2 = test: Hepatotoxicity, HepG2 cell viability; assay type: cell-based, human
Excerpt: as §2, §3

[5] = read-out: % Inhibition of Control Specific Binding

CC(C(=O)N1CCN(c2cccc(C(F)(F)F)c2)CC1)N1C(=O)CC(N(C)C)C1=O.Cl (stereo not shown) [KA-232, 3-(Dimethylamino)-1-(1-oxo-1-(4-(3-(trifluoromethyl)phenyl)piperazin-1-yl)propan-2-yl)pyrrolidine-2,5-dione hydrochloride]
ED50 ([1]; Mus musculus, scPTZ 100 mg/kg, 30 min before test, read-out: ED50 PTZ ± SD): 59.3 ± 78.2 mg/kg | TI (TD50/ED50), PTZ ([1]; scPTZ): 2.75 | TD50 at 30 min (Chimney test): 163 ± 31.2 mg/kg | % Inhibition of Control Specific Binding ([2]; 10 µM): did not interact | inhibition at 10 µM [2, 5]: 9.6% | melting point: 141.4 to 143.5 °C | CYP2D6 activity (% of control ± SD) (CYP2D6; 10 µM): 100.96 ± 2.57 % of control | effect on CYP2D6 activity (CYP2D6; at 0.1 and 1 µM): slight induction | % Inhibition of Control Specific Binding ([3]; 10 µM): did not interact | inhibition at 10 µM [3, 5]: 10.6% | % Inhibition of Control Specific Binding [4]: −2.8 (10) % | HepG2 viability (% of control ± SD) (hepatoma HepG2; 10 µM): 89.44 ± 10.22 % of control | HepG2 cell viability (hepatoma HepG2; 100 µM): approximately 78 % of control
